Data on 28 molecules can be found in US7442398B2, “Phytase produced from Citrobacter braakii” (Republic of National Fisheries Research and Development …, priority 2003, dated 2008).

Series [1] concerns YH-15 phytase. In words: Enzyme activity of phytase according to metal ions and inhibitors. The following applies: for inhibition of enzyme activity by metal ions: concentration of 10 mM; for enzyme activity after being left with denaturant: 37° C. for 2 hours, 8 M urea or 0.0024% SDS. In kind it is biochemical, Citrobacter braakii YH-15. The source says: (§1) The present inventors investigated the effect of metal ions and inhibitors on the enzyme activity of phytase of the present invention.

In series [2] the test system is YH-15 phytase. In words: Substrate specificity of phytase. The format is biochemical, Citrobacter braakii YH-15. Particulars: for Relative activity (%): substrate, phytate = 100. An excerpt: (§2) Substrate specificity of phytase to various phosphate ester compounds was investigated.
Series [3] addresses T1, Citrobacter braakii YH-15 phytase, wild type, SEQ. ID. No 7 (N-terminal SEQ. ID. No 2) (Citrobacter braakii, UniProt Q2VY22).
T1 construct: signal peptide removed
In words: Enzyme activity of YH-15 phytase according to metal ions and inhibitors. In kind it is biochemical. Particulars: for effect of inhibitor on enzyme activity: concentration not given, reagents involved in disulfate bond. On the procedure:
(§3) The present inventors measured the activity of phytase produced by the 5 strains above (Table 1). Inorganic phosphorus quantitative method of Fiske, et al. was used for measuring the activity of phytase in culture solution and in cell precipitate. Particularly, 400 μl of substrate solution (2 mM sodium phytate in 0.1 M sodium acetate buffer, pH 5.0) was added to 100 μl of enzyme solution diluted by required dilution ratio, which was reacted at 37° C. for 30 minutes. Then, 500 μl of 5% TCA solution was added thereto, which was just left at 0° C. for 10 minutes to stop the reaction. As for a control (blank), TCA (trichloroacetic acid) solution was added to enzyme solution to inactivate the enzyme and then substrate solution was added thereto, which was left for a while. 4 ml of reagent A (1:1:1:2 ratio of 6 N H2SO4/2.5% ammonium molybdate/10% ascorbic acid/H2O) was added, followed by reaction at 37° C. for 30 minutes. Then, activities in enzyme solution and in a control were measured at 820 nm. 1 unit of the enzyme was determined to be the enzyme amount releasing 1 μmole of phosphate for 1 minute.
as §1

Series [4] has as its target T1, Citrobacter braakii YH-15 phytase, wild type, SEQ. ID. No 7 (N-terminal SEQ. ID. No 2). In words: Substrate kinetics of purified YH-15 phytase (phosphate release from phytate). The format is biochemical. The following applies: substrate phytate (sodium phytate). On the procedure:
as §3
(§4) The enzyme activity of phytase included in each sample prepared from each purification stage of the above Example <3-2> was investigated (Table 3). Protein content was quantified by BCA protein quantification kit provided by Sigma, co. At that time, BSA (bovine serum albumin) was used as a standard protein. Specific activity of the purified phytase to phytate was 3,457 units/mg, recovery rate was 28%, and the final phytase was purified by 12,950 fold (FIG. 2).
as §2

For series [5], the system named is O=P(O)(O)O[C@H]1[C@H](OP(=O)(O)O)[C@@H](OP(=O)(O)O)[C@H](OP(=O)(O)O)[C@@H](OP(=O)(O)O)[C@H]1OP(=O)(O)O. The description is as above. The format is biochemical, Citrobacter braakii YH-15. Particulars: other: substrate phytate (sodium phytate); pH 5.0; 37.0 °C. On the procedure: as §3, §4, §2
Series [6] is described as follows: Specific activity and kinetics of purified phytase to phytate. The format is biochemical, Citrobacter braakii YH-15. On the procedure:
as §3
The enzyme activity of phytase included in each sample prepared from each purification stage of the above Example <3-2> was investigated (Table 3). Protein content was quantified by BCA protein quantification kit provided by Sigma, co. […]

Series [7] can be described thus: Enzyme activity of phytase according to temperature and pH. In kind it is biochemical, Citrobacter braakii YH-15. On the procedure: The present invention investigated an enzyme activity of phytase, according to temperature and pH, purified through chromatography using Mono S column.
When the enzyme was left at 55° C. for 10 minutes, 75% of the activity was still remained.
50% of the enzyme activity was still maintained at pH 2.5. […] But, as the protein was left under pH 3.0 for 4 hours, the enzyme activity was almost lost. From temperature and pH test with the protein, phytase of the present invention was believed to be very suitable for being used as a feed additive for monogastric animals.

Another series relates to proteases. Briefly: Effect of proteases on the enzyme activity of phytase. In kind it is biochemical. On the procedure: The present inventors investigated the effect of proteases on the enzyme activity of phytase. Particularly, phytase was left at 37° C. for 2 hours with pepsin and trypsin, resulting in no changes in the enzyme activity. But, as papain, elastase and pancreatin were added, 70˜85% of the enzyme activity remained.

With `O=S(=O)([O-])[O-].[Cu+2]` [CuSO4], the “inhibition of enzyme activity by metal ions” value (from here on “inhibition … by metal ions”) in the series with YH-15 phytase [1] was “strongly inhibited”. Besides, in the series with YH-15 phytase [1] (metal ion or inhibitor 6 mM), the “Relative activity (%)” value is 38%.

For the molecule `O=C[C@@H](O)[C@@H](O)[C@H](O)[C@H](O)COP(=O)(O)O` [Mannose-6-phosphate], in the series on YH-15 phytase [2], the “Relative activity (%)” value amounted to 0.01%.

In the case of `[Cl-].[Na+]` [NaCl], the “inhibition of enzyme activity” value in the series with YH-15 phytase [1] (concentration of 1 M) is 50%. In addition, the results for the “Relative activity (%)” value in the series with YH-15 phytase [1] (metal ion or inhibitor 6 mM) and with YH-15 phytase [1] (metal ion or inhibitor 1000 mM) were 102% and 54%, respectively.

For `O=P([O-])([O-])OP(=O)([O-])[O-].[Na+].[Na+].[Na+].[Na+]` [Tetrasodium pyrophosphate], the “Relative activity (%)” value in the series on YH-15 phytase [2] was 5.95%.

On to `OC(CS)C(O)CS` (centres unmarked) [dithothreitol], for which the “effect of inhibitor on enzyme activity” value in series [3] is “hardly affected”.

Regarding `O=P(O)(O)O[C@H]1[C@H](OP(=O)(O)O)[C@@H](OP(=O)(O)O)[C@H](OP(=O)(O)O)[C@@H](OP(=O)(O)O)[C@H]1OP(=O)(O)O` [phytate, myo-inositol 1,2,3,4,5,6 hexakis dihydrogen phosphate], the Vmax in series [4] was 6,027 U/mg.

For the molecule `O=C[C@H](O)[C@@H](O)[C@H](O)[C@H](O)COP(=O)(O)O` [Glucose-6-phosphate], in the series on YH-15 phytase [2], the “Relative activity (%)” value came to 0.33%.

Take `O=P(O)(O)O[C@H]1[C@H](OP(=O)(O)O)[C@@H](OP(=O)(O)O)[C@H](OP(=O)(O)O)[C@@H](OP(=O)(O)O)[C@H]1OP(=O)(O)O` [Phytate, myo-inositol 1,2,3,4,5,6 hexakis dihydrogen phosphate]: in the series on YH-15 phytase [2], the “ability of phytase to decompose the substrate” value was “strong ability to decompose” and the “Relative activity (%)” value is reported as 100%.

For the molecule `NC(N)=O` [urea], the “enzyme activity after being left with denaturant” value with YH-15 phytase [1] is reported as “almost lost”. The “enzyme activity after incubation with inhibitor” value in series [3] (8 M, 37° C., 2 hours) was “almost lost”.

With `[Cl-].[K+]` [KCl], the “Relative activity (%)” value in the series on YH-15 phytase [1] (metal ion or inhibitor 6 mM) came out at 95%.

On to “Citrobacter braakii YH-15 phytase, wild type, SEQ. ID. No 7 (N-terminal SEQ. ID. No 2) (Citrobacter braakii)”, for which, in series [5], the Km was determined as 460 µM and the Vmax is reported as 6,027 U/mg.

For `Nc1ncnc2c1ncn2[C@@H]1O[C@H](COP(=O)(O)OP(=O)(O)O)[C@@H](O)[C@H]1O` [ADP], in the series on YH-15 phytase [2], the “Relative activity (%)” value was 1.04%.

In the case of `O=[N+]([O-])c1ccc(OP(=O)(O)O)cc1` [p-nitrophenyl phosphate], in the series with YH-15 phytase [2], the “Relative activity (%)” value was 11.27%.

On to `O=P(O)(O)OCC(O)CO` (centres unmarked) [Glycerophosphate], for which the “Relative activity (%)” value in the series with YH-15 phytase [2] is given as 0.57%.

Consider `O=S(=O)([O-])[O-].[Zn+2]` [ZnSO4], for which, in the series on YH-15 phytase [1], the “inhibition … by metal ions” value was “strongly inhibited”. In the series with YH-15 phytase [1] (metal ion or inhibitor 8 mM), the “Relative activity (%)” value was found to be 33%.

For `O=P(O)(O)O[C@H]1O[C@H](CO)[C@@H](O)[C@H](O)[C@H]1O` [Glucose-1-phosphate], the “Relative activity (%)” value with YH-15 phytase [2] came to 0.42%.

For `[Cl][Mn][Cl]` [MnCl2], the “Relative activity (%)” value in the series on YH-15 phytase [1] (metal ion or inhibitor 6 mM) is recorded as 92%.

Regarding `[Ca+2].[Cl-].[Cl-]` [CaCl2], the “Relative activity (%)” value in the series on YH-15 phytase [1] (metal ion or inhibitor 6 mM) was 87%.

With `O=C(CO)[C@@H](O)[C@H](O)[C@H](O)COP(=O)(O)O` [Fructose-6-phosphate], the “Relative activity (%)” value in the series on YH-15 phytase [2] is reported as 0.75%.

Turning to `Nc1ncnc2c1ncn2[C@@H]1O[C@H](COP(=O)(O)OP(=O)(O)OP(=O)(O)O)[C@@H](O)[C@H]1O` [ATP], the “Relative activity (%)” value in the series with YH-15 phytase [2] is 1.86%.

With `O=C(O)CN(CCN(CC(=O)O)CC(=O)O)CC(=O)O` [EDTA], the activity at 6000 µM in series [3] (read-out: Relative activity (%)) is 98%.

Take `OCCS` [2-mercaptoethanol]: in series [3], the “effect of inhibitor on enzyme activity” value is on record as “hardly affected”.

As for `[Cl][Cd][Cl]` [CdCl2], the “Relative activity (%)” value in the series on YH-15 phytase [1] (metal ion or inhibitor 6 mM) is 101%.

Regarding `CCCCCCCCCCCCOS(=O)(=O)[O-].[Na+]` [SDS], the “enzyme activity after being left with denaturant” value in the series on YH-15 phytase [1] is on record as “almost lost”.

Regarding `[Cl][Fe]([Cl])[Cl]` [FeCl3], in the series on YH-15 phytase [1], the “inhibition … by metal ions” value is reported as “strongly inhibited”. Moreover, in the series on YH-15 phytase [1] (metal ion or inhibitor 6 mM), the “Relative activity (%)” value came out at 19%.

For the molecule `O=S(=O)([O-])[O-].[Ni+2]` [NiSO4], the “Relative activity (%)” value in the series with YH-15 phytase [1] (metal ion or inhibitor 6 mM) was determined as 88%.

Take `[Cl-].[Cl-].[Mg+2]` [MgCl2]: the “Relative activity (%)” value in the series on YH-15 phytase [1] (metal ion or inhibitor 6 mM) worked out at 71%.

B1: YH-15 phytase: novel phytase enzyme of about 47 kDa produced by Citrobacter braakii YH-15, SEQ. ID. No 7 (protein)
chain: MSTFIIRLLIFSLLCGSFSIHAEEQNGMKLERVVIVSRHGVRAPTKFTPIMKDVTPDQWPQWDVPLGWLTPRGGELVSELGQYQRLWFTSKGLLNNQTCPSPGQVAVIADTDQRTRKTGEAFLAGLAPKCQIQVHYQKDEEKNDPLFNPVKMGKCSFNTLKVKNAILERAGGNIELYTQRYQSSFRTLENVLNFSQSETCKTTEKSTKCTLPEALPSEFKVTPDNVSLPGAWSLSSTLTEIFLLQEAQGMPQVAWGRITGEKEWRDLLSLHNAQFDLLQRTPEVARSRATPLLDMIDTALLTNGTTENRYGIKLPVSLLFIAGHDTNLANLSGALDLKWSLPGQPDNTPPGGELVFEKWKRTSDNTDWVQVSFVYQTLRDMRDIQPLSLEKPAGKVDLKLIACEEKNSQGMCSLKSFSRLIKEIRVPECAVTE
modifications: Citrobacter braakii YH-15; PEPTIDE (1)..(433) phytase
In the case of B1, in series [6] (final purified phytase), the “Specific activity of the purified phytase to phytate” value is recorded as 3,457 units/mg. The Specific activity in series [6] (purification stage Mono SHR 5/5 (final)) was 3,457 U/mg. In series [7], the “pH of highest activity” value worked out at 4.0 and the “temperature of highest activity” value amounted to 50 °C. In addition, the “activity on storage at pH 3.0-4.5” value in series [7] (37° C., pH 3.0-4.5, 7 days) is recorded as “very stably maintained”. Moreover, the “activity remained at pH 7.0” value in series [7] (37° C., pH 7.0, 7 days) amounted to 50%. Also, the “activity after holding at 50° C.” value in series [7] (50° C. for 1 hour) was “stably maintained”. Moreover, the “activity remained after heat” value in series [7] (left at 55° C. for 10 minutes) is 75%. For the same molecule, the “enzyme activity maintained at pH 2.5” value in series [7] (pH 2.5) was found to be 50%. For the same molecule, the “activity after being left under pH 3.0” value in series [7] (under pH 3.0 for 4 hours) is on record as “almost lost”. In addition, the “enzyme activity after pepsin” value with proteases (37° C. for 2 hours with pepsin) is reported as “no changes”. Also, the “enzyme activity after trypsin” value in the series with proteases (37° C. for 2 hours with trypsin) is recorded as “no changes”. In the series with proteases (elastase added), the “enzyme activity remained after elastase” value is listed as 70˜85%. The “enzyme activity remained after pancreatin” value in the series with proteases (pancreatin added) was 70˜85%. Besides, in the series with proteases (papain added), the “enzyme activity remained after papain” value is on record as 70˜85%.
